Assay results published in patent publication US20130095068A1, “AGENT FOR TREATING HCV INFECTION” (priority 2010, published 2013).
“Also recorded” adds a separate entry of the source.

Tests used:
[1] = tested on: HCV subgenomic replicon (LucNeo#2 replicon cells); test: Replicon assay, intracellular luciferase activity in LucNeo#2 replicon cells; assay type: cell-based, Hepatitis C virus; details: for Luciferase activity: 72 hours, percentage of solvent-treated group; for HCV replication inhibitory-activity (in words): LucNeo#2 replicon cells, 3.3 and 10 μM
Description: The inhibitory-effect on HCV replication and the cytotoxicity of a compound of formula (I) of the invention were examined by a replicon assay method using different HCV subgenomic replicon cells from Example 1, specifically LucNeo#2 replicon cells. The LucNeo#2 replicon cells are reporter cells created with the same concept as the luc-ubi-neo/ET replicon cells used in Test Example 1, and are utilized for analysis of the RNA replication mechanism of HCV or anti-HCV drug evaluation, but the gene sequence differs from that of luc-ubi-neo/ET replicon cells (Biochem. Biophys. Res. Commun. 343 (2006) 879-884).
(§1) LucNeo#2 replicon cells cultured to confluency were recovered by trypsin treatment, and were spread on a collagen-coated plate at a density of 20,000 cells/mL. The cell culture was conducted in an incubator at 37° C., 5% CO2, with 10% FCS/DMEM (containing mixed solution of penicillin-streptomycin, G418 and a non-essential amino acid). After 24 hours, the cells were rinsed and a compound of formula (I) was added as Test compound to final concentrations of 3.3 μM or 10 μM. At 72 hours after addition of the Test compound, the cells of one plate were rinsed, the cells were lysed with M-PER, and the intracellular luciferase activity was measured using a Promega kit. An Alamar Blue solution was also added to cells cultured under the same conditions, and the cytotoxicity was examined.
(§2) The intracellular luciferase activity and the Alamar Blue signal for cytotoxicity at 72 hours after Test compound addition were shown in Table 3 as a percentage with respect to the solvent-treated group.

[2] = Cytotoxicity, CytoTox-1 Cell Proliferation Assay in ET replicon cells; assay type: cell-based; details: human, luc-ubi-neo/ET HCV genotype 1b subgenomic replicon cells; Test compound alone, 50% reduction in viable cells, maximum concentration 1.1 μM
Experimental: The HCV subgenome replicon cells used were luc-ubi-neo/ET replicon cells, having the genotype 1b HCV auto-replicating subgenomic replicon, a luciferase reporter, ubiquitin, a neomycin phosphotransferase coding sequence, and three mutations for cell culturing (Pietschmann, T. et al., J. Virol. 76:4008-4021, 2002). The ET replicon cells were cultured in DMEM containing 10% FBS, 1% penicillin/streptomycin, 1% glutamine, and 250 μg/mL G418 in an incubator at 37° C., 5% CO2. For culturing with a Test compound of formula (I), it was performed under the same conditions in DMEM containing 5% FBS, 1% penicillin/streptomycin and 1% glutamine. The ET replicon cells were cultured in two 96-well plates, at 5000 cell/well, separately. On the following day, the Test compound alone diluting to different concentrations with a maximum concentration of 1.1 μM, was added to one plate, while human recombinant Interferon-α-2b (rIFNα-2b) at a fixed concentration of 0.1 IU/mL was added to another plate with the Test compound, simultaneously. At 72 hours after addition, the luciferase activity indicating amplification of HCV mRNA was measured. The cytotoxicity was measured with a CytoTox-1 Cell Proliferation Assay (Promega Corporation). […]

LucNeo#2 replicon cells = test: Cytotoxicity, Alamar Blue in LucNeo#2 replicon cells; assay type: cell-based; details: 72 hours, percentage of solvent-treated group
Experimental: as §1, §2

[3] = tested on: genotype 1b HCV auto-replicating subgenomic replicon (luc-ubi-neo/ET replicon cells); test: Replicon assay, luciferase activity in luc-ubi-neo/ET HCV subgenome replicon cells; assay type: cell-based, Hepatitis C virus; details: for Luciferase activity: 72 hours, percentage of solvent alone
Description: The inhibitory-effect on HCV replication and the cytotoxicity of a compound of formula (I) of the invention was examined by a replicon assay using HCV subgenome replicon cells.
The HCV subgenome replicon cells used were luc-ubi-neo/ET replicon cells, having the genotype 1b HCV auto-replicating subgenomic replicon, a luciferase reporter, ubiquitin, a neomycin phosphotransferase coding sequence, and three mutations for cell culturing (Pietschmann, T. et al., J. Virol. 76:4008-4021, 2002). The ET replicon cells were cultured in DMEM containing 10% FBS, 1% penicillin/streptomycin, 1% glutamine, and 250 μg/mL G418 in an incubator at 37° C., 5% CO2. For culturing with a Test compound of formula (I), it was performed under the same conditions in DMEM containing 5% FBS, 1% penicillin/streptomycin and 1% glutamine. The ET replicon cells were cultured in two 96-well plates, at 5000 cell/well, separately. On the following day, the Test compound alone diluting to different concentrations with a maximum concentration of 1.1 μM, was added to one plate, while human recombinant Interferon-α-2b (rIFNα-2b) at a fixed concentration of 0.1 IU/mL was added to another plate with the Test compound, simultaneously. At 72 hours after addition, the luciferase activity indicating amplification of HCV mRNA was measured. The cytotoxicity was measured with a CytoTox-1 Cell Proliferation Assay (Promega Corporation).
The luciferase activities, for the compound of formula (I) alone and for a combination of the compound of formula (I) and rIFNα-2b, were shown in Table 1 as percentage with respect to luciferase activity when using the solvent alone. The HCV replication inhibitory-activity was determined as the concentration which produced 50% inhibition of HCV replicon (EC50), and the cytotoxicity was determined as the concentration which produced 50% reduction in viable cells (IC50), while the selectivity was determined as the value of IC50/EC50; the results are summarized in Table 2.

[4] = tested on: HCV subgenomic replicon (LucNeo#2 replicon cells); test: HCV replication inhibition in LucNeo#2 replicon cells, luciferase corrected by cell number (Alamar Blue); assay type: cell-based; details: Hepatitis C virus, 96 h; 1 uM, 4 days, luciferase activity per Alamar Blue value; read-out: Inhibition (%) at 1 uM
Experimental: LucNeo#2 replicon cells, which were the HCV subgenomic replicon cells used in Test Example 2, were used to examine HCV replication inhibitory-activity, from which signals were corrected by using cell number.
LucNeo#2 replicon cells cultured to confluency were recovered by trypsin treatment, and were spread on a collagen-coated plate at a density of 1000 cells/well. The cell culture was conducted in an incubator at 37° C., 5% CO2, with 10% FBS/DMEM (containing mixed solution of penicillin-streptomycin and a non-essential amino acid). On the following day or the evening after confirmation of cell adhesion, a compound of formula (I) as the Test compound was added to final concentration of 1.0 to 1.3 μM. At 4 days after the Test compound addition, Alamar Blue diluted 5-fold with PBS(−) was added in an amount of 1/10 for measurement of the fluorescence, to determine the cell count. After the Alamar Blue measurement, the luminescence from intracellular luciferase activity was determined by adding substrate solution in an amount of 5/11 using a Promega kit.
The Alamar Blue activity and luciferase activity were determined by subtracting the values measured for wells without cells. Next, the luciferase activity value×1000 was divided by the value from Alamar Blue measurement, then, the total activity was defined as the value calculated without the Test compound, and the percentages of inhibition by the Test compound was calculated in respect to total activity and listed in Table 4.

**Q.** Which Luciferase activity ([1]; 3.3 μM) does the source give for COc1cc(/C=C2\CC[C@H]3COC[C@@H](c4cc(F)c(F)c(F)c4)N3C2=O)ccc1-n1cnc(C)c1 [Test compound B, (E)-(4R,9aS)-7-[3-methoxy-4-(4-methyl-1H-imidazol-1-yl)benzylidene]-4-(3,4,5-trifluorophenyl)hexahydropyrido[2,1-c][1,4]oxazin-6-one] here?
**A.** 50.30%

**Q.** What about the Luciferase activity ([1]; 10 μM) of the same compound?
**A.** 27.80%

**Q.** And the “HCV replication inhibitory-activity (in words)” value [1]?
**A.** potent HCV replication inhibitory-activity by reducing the luciferase activity in a dose-dependent manner

**Q.** What about the IC50 at 72 h [2] of the same compound?
**A.** > 1.1 µM

**Q.** What about the “Cytotoxicity (Alamar Blue signal)” value (LucNeo#2 replicon cells; 3.3 μM) of the same compound?
**A.** 101.00%

**Q.** What about the “Cytotoxicity (Alamar Blue signal)” value (LucNeo#2 replicon cells; 10 μM) of the same compound?
**A.** 100.75%

**Q.** And the EC50 ([3]; Hepatitis C virus, 72 h, read-out: HCV replication inhibitory activity EC50)?
**A.** 0.31 µM

**Q.** What about the “Selectivity IC50/EC50” value ([3]; Test compound alone) of the same compound?
**A.** >3.55

**Q.** And the Luciferase activity ([3]; Test compound alone, 0.001 μM)?
**A.** 72%

**Q.** And the Luciferase activity ([3]; Test compound alone, 0.003 μM)?
**A.** 73%

**Q.** What about the Luciferase activity ([3]; Test compound alone, 0.03 μM) of the same compound?
**A.** 62%

**Q.** What about the Luciferase activity ([3]; Test compound alone, 0.11 μM) of the same compound?
**A.** 68%

**Q.** And the Luciferase activity ([3]; Test compound alone, 0.35 μM)?
**A.** 48%

**Q.** And the Luciferase activity ([3]; Test compound alone, 1.1 μM)?
**A.** 30%

**Q.** And the “HCV replication inhibitory-activity (in words)” value ([3]; Test compound used alone)?
**A.** approximately dose-dependent HCV replication inhibitory-activity; also recorded: potent HCV replication inhibitory-activity at lower concentrations than the concentrations for the cytotoxicity

**Q.** And the “HCV replication inhibitory-activity (in words)” value ([3]; used in combination with rIFNα-2b)?
**A.** more potent reduction of HCV replication with dose-dependent manner; also recorded: even more potent HCV replication inhibitory-activity at lower concentrations than the concentrations for the cytotoxicity

**Q.** Which inhibition at 1 µM [4] does the source give for Cc1cn(-c2ccc(/C=C/C(=O)NC3CCc4ccccc43)cc2OC2CCCC2)cn1 (stereo not drawn) [compound 47] here?
**A.** 63.8%

**Q.** Which inhibition at 1 µM [4] does the source give for CC(=O)c1cc(/C=C/C(=O)NC2CCc3ccccc32)ccc1-n1ccnc1 (stereo not drawn) [compound 21] here?
**A.** 81.9%

**Q.** Which inhibition at 1 µM [4] does the source give for COc1ccccc1CNC(=O)/C=C/c1ccc(-n2ccnc2)c(OC)c1 [compound 38] here?
**A.** 63.7%

**Q.** Which inhibition at 1 µM [4] does the source give for Cc1cc(/C=C/C(=O)NC2CCc3ccccc32)ccc1-n1ccnc1 (stereo not drawn) [compound 31] here?
**A.** 71%

**Q.** With COc1cc(/C=C/C(=O)NC2Cc3ccccc3C2)ccc1-n1ccnc1 [compound 27] as the compound, how does the inhibition at 1 µM [4] read?
**A.** 69%

**Q.** For CCC(NC(=O)/C=C/c1ccc(-n2cnc(C)c2)c(OC)c1)c1cccnc1 (stereo not drawn) [compound 36], which inhibition at 1 µM [4] is on record?
**A.** 75.7%

**Q.** For Cc1cn(-c2ccc(/C=C/C(=O)NC3CCc4ccccc43)cc2Br)cn1 (stereo not drawn) [compound 18], which inhibition at 1 µM [4] is on record?
**A.** 75.3%

**Q.** Which inhibition at 1 µM [4] does the source give for COc1cc(/C=C/C(=O)NCC2CCCCC2)ccc1-n1ccnc1 [compound 16] here?
**A.** 71.2%

**Q.** For CC(O)c1cc(/C=C/C(=O)NC2CCc3ccccc32)ccc1-n1ccnc1 (stereo not drawn) [compound 14], which inhibition at 1 µM [4] is on record?
**A.** 73.4%

**Q.** Which Luciferase activity ([1]; 3.3 μM) does the source give for COc1cc(/C=C2\CCCN([C@@H](CO)c3ccc(F)cc3)C2=O)ccc1-n1cnc(C)c1 [Test compound C, (E)-1-[(1R)-1-(4-fluorophenyl)-2-hydroxyethyl]-3-[3-methoxy-4-(4-methyl-1H-imidazol-1-yl)benzylidene]piperidin-2-one] here?
**A.** 93.50%

**Q.** And the Luciferase activity ([1]; 10 μM)?
**A.** 55.00%

**Q.** And the “HCV replication inhibitory-activity (in words)” value [1]?
**A.** potent HCV replication inhibitory-activity by reducing the luciferase activity in a dose-dependent manner

**Q.** And the “Cytotoxicity (Alamar Blue signal)” value (LucNeo#2 replicon cells; 3.3 μM)?
**A.** 101.00%

**Q.** And the “Cytotoxicity (Alamar Blue signal)” value (LucNeo#2 replicon cells; 10 μM)?
**A.** 102.00%

**Q.** For COCc1cn(-c2ccc(/C=C/C(=O)NC3CCc4ccccc43)cc2F)cn1 (stereo not drawn) [compound 43], which inhibition at 1 µM [4] is on record?
**A.** 55.8%

**Q.** With COc1cc(/C=C/C(=O)N2C[C@H]2c2ccccc2)ccc1-n1cnc(C)c1 [compound 51] as the compound, how does the inhibition at 1 µM [4] read?
**A.** 62.2%

**Q.** With COc1cc(/C=C/C(=O)NC(Cc2ccccc2)c2ccccc2)ccc1-n1ccnc1 (stereo not drawn) [compound 23] as the compound, how does the inhibition at 1 µM [4] read?
**A.** 71.6%

**Q.** With C/C(=C\C(=O)NC1CCc2ccccc21)c1ccc(-n2ccnc2)c(F)c1 (stereo not drawn) [compound 64] as the compound, how does the inhibition at 1 µM [4] read?
**A.** 78%

**Q.** Which inhibition at 1 µM [4] does the source give for COc1cc(/C(F)=C(/C)C(=O)NC2CCc3ccccc32)ccc1-n1cnc(C)c1 (stereo not drawn) [compound 61] here?
**A.** 50.5%

**Q.** With COc1cc(/C=C/C(=O)NCCc2ccc(Cl)cc2)ccc1-n1ccnc1 [compound 48] as the compound, how does the inhibition at 1 µM [4] read?
**A.** 61.3%

**Q.** For COc1cc(/C=C/C(=O)NC(c2ccccc2)c2ccccc2)ccc1-n1ccnc1 [compound 42], which inhibition at 1 µM [4] is on record?
**A.** 75.8%

**Q.** Which inhibition at 1 µM [4] does the source give for CS(=O)(=O)c1cc(/C=C/C(=O)NC2CCc3ccccc32)ccc1-n1ccnc1 (stereo not drawn) [compound 34] here?
**A.** 70.2%

**Q.** Which inhibition at 1 µM [4] does the source give for COc1cc(/C=C/C(=O)NC2(c3ccccc3)CC2)ccc1-n1ccnc1 [compound 17] here?
**A.** 87.7%
